Experimental data taken from US8969020B2, “Peptide sequence that promotes tumor invasion” (MetaMol Theranostics LLC, priority 2005, dated 2015).

Key:
Format in all cases: cell-based, human
MCF-7 cells [1] = experiment: Cell growth rate of MCF-7 cells in 24-well plates with or without peptide; conditions: 5000 cells/well, daily cell counts
Protocol: Two control peptides (hOPN-c scrambled sequence SEQ ID NO: 33 and hOPN-exon5 SEQ ID NO: 34) had no effect (data not shown). […] For investigation of cell growth rates, MCF-7 cells were plated at 5000 cells/well in 24-well plates in the presence or absence of peptide. Daily, five wells per group were harvested by trypsinization and the cell numbers were determined in a Coulter™ Z-Series Counter.
(§1) 5×10^5 MCF-7 cells per 60-mm dish were plated in triplicates with a top layer of 0.3% agar (BACTO Agar, Difco, Detroit, Mich.) and a bottom layer of 0.5% agar (both in α-MEM). Peptide was added at the indicated concentrations upon plating and was replenished with every addition of medium. For the investigation of cell growth rates, MCF-7 cells were plated at 5000 cells/well in 24-well plates in the presence or absence of peptide. Effects of a synthetic peptide on MDA-MB-435 cells are shown in FIG. 9C after 10 days in the presence or absence of synthetic peptides. hOPN Exon-5 peptide (NAVSSEETNDFKQE) SEQ ID NO: 34 and scrambled hOPN-c peptide (SSEEQETGVEKASSNS) SEQ ID NO: 33 served as non-specific controls.

MCF-7 cells [2] = experiment: Soft agar colony formation by MCF-7 cells with synthetic peptide added; conditions: after ten days, peptide replenished with every addition of medium
Protocol: To assess effect on soft agar colony formation, 5×10^5 MCF-7 cells per 60-mm dish were plated in triplicates with a top layer of 0.3% agar (BACTO Agar, Difco, Detroit Mich.) and a bottom layer of 0.5% agar (both in a-MEM). Peptide SEQ ID NO: 37 was added at the indicated concentrations upon plating and was replenished with every addition of medium. Every other day, 0.4 ml of medium was supplemented. After ten days, photographs were taken at high and low magnification and the surface area of all clones in five fields was measured with the imaging software ImageJ (NIH) or Metamorph.
as §1

MCF-7 cells [3] = experiment: Adhesion of MCF-7 cells to coated wells; conditions: 2 hours at 37° C., 96-well plate coated overnight
Protocol: 96-well polystyrene plates were coated with the indicated amounts of GST-OPN forms or control fibronectin ([…]) in […] at 4° C. overnight. The wells were washed twice with cold PBS followed by blocking with 1% BSA for 1 h at 37° C. MCF-7 parental cells were used to assay adhesion. Cells were trypsinized and treated with soybean trypsin inhibitor, then washed twice with PBS and resuspended in adhesion buffer (0.1% BSA, 1 mM sodium pyruvate, 2 mM MgCl2). Cells (2×10^4 cell/well) were added to the above 96-well plates and allowed to adhere at 37° C. for two hours. Non-adherent cells were removed by rinsing twice with PBS. Adherent cells were counted and photographed. For adhesion to aggregated OPN, 1 μg of GST or GST-OPN forms were added to 96-well plated in aggregation buffer (0.2 M NaCl, 0.05 M Tris-HCl, pH 7.6, 5 mM CaCl2 final concentration) and incubated at 4° C. overnight. All adhesion assays were performed with triplicate wells and were repeated at least three times.
Stably transfected cells were plated at 5000 cells/well (24-well plate) on day 0. On every consecutive day, five wells per cell line were harvested and the total number of cells was counted. […] Aggregation was assessed after 16 hours at increasing calcium concentrations. Consecutively denaturing, non-reducing SDS-PAGE and Western blotting for OPN was performed. […]

Substance | cell growth (MCF-7 cells [1]) | size of the clones formed in soft agar (MCF-7 cells [2]) | cell spreading of adhered cells on coated plastic (MCF-7 cells [3])
Ac-SGSSEEKQNAVSSEET-NH2 [SEQ ID NO: 37] | no effect on cell growth | increasing the size of the clones formed in soft agar | –
NAVSSEETNDFKQE (Control peptide derived from Exon 5) [SEQ ID NO: 34, hOPN Exon-5 peptide, non-specific control, reference compound] | – | no effect | –
SGSSEEKQNAVSSEET (Peptide representing a domain encompassing the splice junction of Exon 3 and 5) [SEQ ID NO: 8, OPNc peptide, domain around the splice junction of OPN variant-c] | did not support the growth of cells in plastic dishes | enhanced soft agar clone formation | –
SSEEQETGVEKASSNS (Control peptide for OPNcPEP) [SEQ ID NO: 33, scrambled hOPN-c peptide, non-specific control, reference compound] | – | no effect | –
fibronectin | – | – | cell spreading
